Where two headings read alike, the source gives them in different places.
Key:
[1] = target: Recombinant Human NF-kappaB-Inducing Kinase (NIK/MAP3K14) (Homo sapiens, UniProt Q99558); test: Inhibition of auto-phosphorylation of recombinant human NIK/MAP3K14 activity (AlphaScreen); type: biochemical; conditions: 5 μM ATP, 1 nM NIK, average if tested more than once
Procedure, shortened: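 AlphaScreen detection of phospho-Ser176/180 after 1 nM GST-NIK auto-phosphorylates for 2 h at 25 °C with 5 μM ATP (50 mM Tris pH 7.5, 0.7% DMSO). IC50s come from sigmoidal curves of % inhibition against log dose, using enzyme-free, ATP-free low controls and full-activity high controls.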

[2] = system: p-IKKa levels in L363 (NIK translocated multiple myeloma) cells; test: Effect of compounds on p-IKKa levels in L363 (NIK translocated multiple myeloma) cells (AlphaLISA SureFire Ultra p-IKKa Ser176/180); type: cell-based, human; conditions: average if tested more than once, read-out: Assay 2 IC50
Procedure, shortened: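 Phospho-IKKa (Ser176/180) in lysates quantified by AlphaLISA after 6 h compound exposure, 11-point threefold dilutions, 0.3% DMSO. L363 cells were pre-stimulated overnight and assayed with 250 ng/ml BAFF and 10 μM MG132; % inhibition fitted sigmoidally for IC50, duplicate curves.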

[3] = Homo sapiens, L-363, p-IKKa levels in L363 cells

Recombinant Human NF-kappaB-Inducing Kinase (NIK/MAP3K14), sequence (Q99558 whole entry): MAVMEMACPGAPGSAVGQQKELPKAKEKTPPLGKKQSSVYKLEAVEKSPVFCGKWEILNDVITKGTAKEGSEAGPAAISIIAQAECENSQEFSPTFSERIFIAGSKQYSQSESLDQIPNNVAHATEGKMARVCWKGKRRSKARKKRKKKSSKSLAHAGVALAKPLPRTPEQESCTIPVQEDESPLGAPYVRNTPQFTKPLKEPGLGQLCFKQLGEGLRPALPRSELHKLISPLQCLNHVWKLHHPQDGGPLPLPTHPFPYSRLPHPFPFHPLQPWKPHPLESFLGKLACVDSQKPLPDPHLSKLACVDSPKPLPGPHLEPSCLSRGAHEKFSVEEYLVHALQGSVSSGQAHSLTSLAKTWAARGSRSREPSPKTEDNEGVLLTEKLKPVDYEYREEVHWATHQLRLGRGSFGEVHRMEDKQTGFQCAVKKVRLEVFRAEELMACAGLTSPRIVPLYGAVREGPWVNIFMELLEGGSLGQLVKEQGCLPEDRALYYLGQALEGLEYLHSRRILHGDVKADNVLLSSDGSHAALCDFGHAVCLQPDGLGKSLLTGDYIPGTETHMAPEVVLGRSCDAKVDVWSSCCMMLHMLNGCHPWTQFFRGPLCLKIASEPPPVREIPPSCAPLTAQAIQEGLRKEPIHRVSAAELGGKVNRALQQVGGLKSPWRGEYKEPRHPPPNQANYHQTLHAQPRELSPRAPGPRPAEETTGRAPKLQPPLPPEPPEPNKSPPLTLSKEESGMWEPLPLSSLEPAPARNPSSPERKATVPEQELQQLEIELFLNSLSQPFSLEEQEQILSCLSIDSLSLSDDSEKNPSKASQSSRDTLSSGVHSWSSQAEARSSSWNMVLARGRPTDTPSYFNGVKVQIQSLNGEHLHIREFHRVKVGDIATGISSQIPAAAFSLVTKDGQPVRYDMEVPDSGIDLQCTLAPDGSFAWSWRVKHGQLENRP

| SMILES | IC50 [1] [nM] | IC50 [2, 3] [nM] | IC50 ([2]; p-IKKa levels in L363 cells) [nM] |
| --- | --- | --- | --- |
| CN1CC[C@@](O)(c2cccc(-c3nc(-c4ccnc(Nc5cccc(OC(F)(F)F)n5)n4)cs3)c2)C1=O [Example 167, (R)-3-Hydroxy-1-methyl-3-(3-(4-(2-((6-(trifluoromethoxy)pyridin-2-yl)amino)pyrimidin-4-yl)thiazol-2-yl)phenyl)pyrrolidin-2-one] | < 100 | > 501 |  |
| CN1CC[C@@](O)(c2cccc(-c3nc(-c4ccnc(Nc5cc6ccccn6n5)n4)cs3)c2)C1=O [Example 277, (R)-3-Hydroxy-1-methyl-3-(3-(4-(2-(pyrazolo[1,5-a]pyridin-2-ylamino)pyrimidin-4-yl)thiazol-2-yl)phenyl)pyrrolidin-2-one] | 100 to 500 | > 501 |  |
| COCCn1nc(C)cc1Nc1nccc(-c2csc(-c3cccc([C@]4(O)CCN(C)C4=O)c3)n2)n1 [Example 107, (R)-3-hydroxy-3-(3-(4-(2-((1-(2-methoxyethyl)-3-methyl-1H-pyrazol-5-yl)amino)pyrimidin-4-yl)thiazol-2-yl)phenyl)-1-methylpyrrolidin-2-one] | > 501 | > 501 |  |
| CN1CC[C@@](O)(c2cccc(-c3nc(-c4ccnc(Nc5ccnn5C5COC5)n4)cs3)c2)C1=O [Example 160, (R)-3-Hydroxy-1-methyl-3-(3-(4-(2-((1-(oxetan-3-yl)-1H-pyrazol-5-yl)amino)pyrimidin-4-yl)thiazol-2-yl)phenyl)pyrrolidin-2-one] | < 100 | > 501 |  |
| CN1C(=O)[C@@](O)(c2ccnc(-c3csc(-c4ccnc(Nc5ccn(C)n5)n4)n3)c2)C[C@@H]1C(F)(F)F (single isomer, unassigned) [Example 60] | 100 to 500 | > 501 |  |
| Cc1cc(Nc2nccc(-c3csc(-c4cccc([C@]5(O)CCN(C)C5=O)c4)n3)n2)ccn1 [Example 43, (R)-3-Hydroxy-1-methyl-3-(3-(4-(2-((2-methylpyridin-4-yl)amino)pyrimidin-4-yl)thiazol-2-yl)phenyl)pyrrolidin-2-one] | < 100 | 100 to 500 |  |
| C[C@H](Nc1nccc(-c2nc(-c3cccc([C@]4(O)CCN(C)C4=O)c3)cs2)n1)c1ccnn1C (single isomer, unassigned) [Example 126] | < 100 | 100 to 500 |  |
| CN1CC[C@@](O)(c2cccc(-c3nc(-c4ccnc(Nc5ccn(C6CC6)n5)n4)cs3)c2)C1=O [Example 259, (R)-3-(3-(4-(2-((1-Cyclopropyl-1H-pyrazol-3-yl)amino)pyrimidin-4-yl)thiazol-2-yl)phenyl)-3-hydroxy-1-methylpyrrolidin-2-one] | < 100 | 100 to 500 |  |
| CN1CCC(n2cc(Nc3nccc(-c4nc(-c5cccc([C@]6(O)CCN(C)C6=O)c5)cs4)n3)cn2)CC1 [Example 87, (R)-3-hydroxy-1-methyl-3-(3-(2-(2-((1-(1-methylpiperidin-4-yl)-1H-pyrazol-4-yl)amino)pyrimidin-4-yl)thiazol-4-yl)phenyl)pyrrolidin-2-one] | < 100 | 100 to 500 |  |
| Cc1c(CNc2nccc(-c3csc(-c4cccc([C@]5(O)CCN(C)C5=O)c4)n3)n2)cnn1C [Example 118, (R)-3-(3-(4-(2-(((1,5-dimethyl-1H-pyrazol-4-yl)methyl)amino)pyrimidin-4-yl)thiazol-2-yl)phenyl)-3-hydroxy-1-methylpyrrolidin-2-one] | < 100 | > 501 |  |
| CC(Nc1nccc(-c2nc(-c3cccc(C4(O)CCN(C)C4=O)c3)cs2)n1)c1ccn(C)n1 (single isomer, unassigned) [Example 51] | < 100 |  | 100 to 500 |
| CCn1cc(Nc2nccc(-c3csc(-c4cccc([C@]5(O)CCN(C)C5=O)c4)n3)n2)cn1 [Example 268, (R)-3-(3-(4-(2-((1-ethyl-1H-pyrazol-4-yl)amino)pyrimidin-4-yl)thiazol-2-yl)phenyl)-3-hydroxy-1-methylpyrrolidin-2-one] | < 100 | 100 to 500 |  |
| CN1CC[C@@](O)(c2cccc(-c3nc(-c4ccnc(NC5CCC(F)(F)CC5)n4)cs3)c2)C1=O [Example 241] | < 100 | > 501 |  |
| CC(C)Cn1cnc(Nc2nccc(-c3csc(-c4cccc([C@]5(O)CCN(C)C5=O)c4)n3)n2)c1 [Example 116, (R)-3-hydroxy-3-(3-(4-(2-((1-isobutyl-1H-imidazol-4-yl)amino)pyrimidin-4-yl)thiazol-2-yl)phenyl)-1-methylpyrrolidin-2-one] | < 100 | > 501 |  |
| CN1CC[C@@](O)(c2cccc(-c3nc(-c4ccnc(N[C@@H]5CCOC5)n4)cs3)c2)C1=O [Example 251] | < 100 | > 501 |  |
| CN1CC[C@@](O)(c2cccc(-c3nc(-c4ccnc(NC5(c6ccccn6)CC5)n4)cs3)c2)C1=O [Example 224] | 100 to 500 | > 501 |  |
| CN1CC[C@@](O)(c2cccc(-c3nc(-c4ccnc(NCCCOCC(F)(F)F)n4)cs3)c2)C1=O [Example 238] | 100 to 500 | > 501 |  |
| CN1CC[C@@](O)(c2cccc(-c3nc(-c4ccnc(NCC5(O)CC5)n4)cs3)c2)C1=O [Example 240] | 100 to 500 | > 501 |  |
| CC(Nc1nccc(-c2nc(-c3cccc(C4(O)CCN(C)C4=O)c3)cs2)n1)c1cnn(C)c1 (single isomer, unassigned) [Example 39] | < 100 |  | < 100 |
| CN1CC[C@@](O)(c2cncc(-c3ccn(-c4ccnc(Nc5cnn6ccccc56)n4)n3)c2)C1=O (single isomer, unassigned) [Example 146, (R)-3-hydroxy-1-methyl-3-(5-(1-(2-(pyrazolo[1,5-a]pyridin-3-ylamino)pyrimidin-4-yl)-1H-pyrazol-3-yl)pyridin-3-yl)pyrrolidin-2-one or (S)-3-hydroxy-1-methyl-3-(5-(1-(2-(pyrazolo[1,5-a]pyridin-3-ylamino)pyrimidin-4-yl)-1H-pyrazol-3-yl)pyridin-3-yl)pyrrolidin-2-one] | < 100 | < 100 |  |
| CN1CC[C@@](O)(c2cccc(-c3nc(-c4ccnc(N[C@H]5C[C@@H](O)C5)n4)cs3)c2)C1=O [Example 180] | 100 to 500 | > 501 |  |
| Cc1cccc(Nc2nccc(-c3csc(-c4cccc([C@]5(O)CCN(C)C5=O)c4)n3)n2)n1 [Example 48, (R)-3-hydroxy-1-methyl-3-(3-(4-(2-((6-methylpyridin-2-yl)amino)pyrimidin-4-yl)thiazol-2-yl)phenyl)pyrrolidin-2-one] | < 100 | > 501 |  |
| Cc1nn(CC(F)F)cc1Nc1nccc(-n2ccc(-c3cc([C@]4(O)CCN(C)C4=O)ccn3)n2)n1 [Example 292, (R)-3-(2-(1-(2-((1-(2,2-Difluoroethyl)-3-methyl-1H-pyrazol-4-yl)amino)pyrimidin-4-yl)-1H-pyrazol-3-yl)pyridin-4-yl)-3-hydroxy-1-methylpyrrolidin-2-one] | < 100 | < 100 |  |
| CN1CC[C@@](O)(c2cccc(-c3csc(-c4ccnc(Nc5cnn6cccnc56)n4)n3)c2)C1=O [Example 85, (R)-3-hydroxy-1-methyl-3-(3-(2-(2-(pyrazolo[1,5-a]pyrimidin-3-ylamino)pyrimidin-4-yl)thiazol-4-yl)phenyl)pyrrolidin-2-one] | < 100 | < 100 |  |
| CN1CC[C@@](O)(c2cccc(-c3nc(-c4ccnc(NCc5ccn(C)n5)n4)cs3)c2)C1=O [Example 184] | < 100 | > 501 |  |

— US20250304567A1, “PYRROLIDIONE DERIVATIVES AS INHIBITORS OF NF KAPPA B INDUCING KINASE” (priority 2022, published 2025)
